Measurements reported in publication PMC8583417, “Evaluation of the Antimicrobial Efficacy of N-Acetyl-L-Cysteine, Rhamnolipids, and Usnic Acid—Novel Approaches to Fight Food-Borne Pathogens” (International Journal of Molecular Sciences, 2021).
In brackets after ≈: the same amount, converted by molar mass. Marks after values point to notes of the source that are not given here.

Columns and labels:
[1] = tested on: S. Infantis S13; test: MIC for planktonic cell growth (A625nm); assay type: cell-based, Salmonella enterica Infantis; conditions: for MICPC80: ≥80% inhibition, 24 h
Procedure: (§1) Ten concentrations of NAC, RLs, and UA were tested to determine the minimum inhibitory concentration for planktonic growth, and subsequently, the six highest concentrations were applied on preformed biofilms to evaluate the biofilm eradication ability of the compounds. MIC was defined as the lowest substance concentration able to inhibit at least 80% of microbial growth (MICPC80 for planktonic cells, MICBC80 for further growth of biofilm cells), inhibit 80% of metabolic activity (MICBM80 for biofilm metabolic activity, MICMPB80 for metabolic activity of preformed biofilm), prevent biofilm formation by at least 80% (MICBF80 for biofilm formation), or reduce a preformed biofilm by at least 80% (MICBR80 for biofilm reduction). The results of MICs are summarized in Table 1 (planktonic cells) and Table 2 (biofilm-associated cells).
(§2) The determination of MICs was performed according to Chlumsky et al.. Briefly, 96-well flat-bottomed microtiter plates were inoculated with 75 µL (for biofilm formation) or 100 µL (for preformed biofilm) of bacterial suspension (A625nm 0.08 to 0.1) in technical triplicates and were then carefully mixed with the dilution series of the test substances (24 h cultivation at 25 °C for S. Infantis, 37 °C for other strains) or were directly cultivated to preform biofilms (18 h). For a positive control of bacterial growth, the inoculum was mixed with a pure sterile medium. Furthermore, the sterile medium was included in the plate as a marker of potential microbial contamination. To evaluate planktonic cells growth (MICPC80) and further growth of biofilm cells (MICBC80), the optical density of the content of the microtiter plates was measured spectrophotometrically at 625 nm before and after 24 h (for biofilm formation) of cultivation or before and after additional 20 h incubation with the tested compound (for preformed biofilm). The difference of A625nm was considered as a measure of the ability of cells to grow in the presence of the tested substances. To evaluate the inhibition of biofilm formation (MICBF80) and reduction in preformed biofilms (MICBR80), biomass was quantified using crystal violet staining, and its metabolic activity (MICBM80 and MICMPB80) was estimated by using the MTT (thiazyl tetrazolium bromide, Sigma-Aldrich, USA) reduction assay, both measured spectrophotometrically at 595 nm.
(§3) All inhibitions were calculated using the formula of Chlumsky et al. below (Equation (1)):(1) A625(595)nm inhibition (%)=A625(595)nm (control) – A625(595)nm(natural substance)/A625(595)nm (control)× 100 where A625(595)nm (control) is the absorbance of bacterial suspension/biofilm itself, and A625(595)nm(natural substance) is the absorbance of the bacterial suspension/biofilm with the added natural substance (NAC, RLs, and UA).
(§4) When the minimum inhibitory concentration could not be determined, the MIC was established as >the highest tested concentration for NAC, RLs, and UA.

[2] = tested on: S. Infantis S59; test: MIC for planktonic cell growth (A625nm); assay type: cell-based, Salmonella enterica Infantis; conditions: for MICPC80: ≥80% inhibition, 24 h
Procedure: as §1, §2, §3, §4

[3] = tested on: E. coli 693/17; test: MIC for biofilm formation (crystal violet staining); assay type: cell-based, Escherichia coli; conditions: for MICBF80: ≥80% prevention, 24 h
Procedure: as §1, §2, §3, §4

[4] = tested on: E. coli 683/17; test: MIC for biofilm metabolic activity (MTT reduction assay); assay type: cell-based, Escherichia coli; conditions: for MICBM80: ≥80% inhibition, 24 h
Procedure: as §1, §2, §3, §4

[5] = tested on: E. coli 693/17; test: as above; assay type: cell-based, Escherichia coli; conditions: for MICBM80: ≥80% inhibition, 24 h
Procedure: as §1, §2, §3, §4

[6] = tested on: HaCat (human keratinocytes); test: Acute cytotoxicity, resazurin assay; assay type: cell-based; conditions: 72 h
Text: (§5) To test the acute cytotoxicity of the compounds, the following cell lines were used: primary human renal tubular epithelial cells (HRTEC; Evercyte, Vienna, Austria); human keratinocytes (HaCat; Thermo Fisher Scientific, Waltham, MA, USA); human dermal fibroblasts (HDF; Merck, Kenilworth, NJ, USA); human epithelial kidney cells (HEK 293; ATCC, Manassas, VI, USA); primary human coronary artery endothelial cells (HCAEC; ATCC, Manassas, VI, USA). The cell lines were maintained in a proper cultivation medium—HaCat, HDF, and Hek 293 in DMEM; HRTEC in VCB; HCAEC in ProxUp. The cytotoxicity experiment was realized according to Tran et al.. Briefly, the cells were counted by the Cellometer Auto T4 (Nexcelom Bioscience, Lawrence, MA, USA), and the cell suspension containing a cell density of 10^5 cells/mL was split into the 96-well plate, with 100 µL per well. The plates were then incubated for 24 h at 37 °C in a humidified atmosphere of 5% CO2. Then, the plates were washed three times with PBS, and the tested natural compounds were added using binary dilution in a proper medium. After 72 h of incubation, the cell viability was tested by resazurin assay. The fluorescence was measured by a SpectraMax i3× microplate reader (San Jose, CA, USA) at a wavelength of 560 nm excitation/590 nm emission.
(§6) The cytotoxicity results are expressed as the average IC50 ± standard error of the mean (SEM). Values of IC50 were obtained by using the online tool Quest Graph IC50 Calculator (AAT Bioquest Inc., Sunnyvale, CA, USA). One-way analysis of variance (ANOVA) was used followed by Duncan’s post hoc test (p < 0.05) to show the differences between the groups. For ANOVA, the Statistica software (Tibco Software Inc., Palo Alto, CA, USA) was used in version 12.

[7] = tested on: HRTEC (primary human renal tubular epithelial cells); test: Acute cytotoxicity, resazurin assay; assay type: cell-based; conditions: 72 h
Text: as §5, §6

[8] = tested on: HEK 293 (human epithelial kidney cells); test: Acute cytotoxicity, resazurin assay; assay type: cell-based
Text: as §5, §6

[9] = tested on: HCAEC (primary human coronary artery endothelial cells); test: Acute cytotoxicity, resazurin assay; assay type: cell-based; conditions: 72 h
Text: as §5, §6

[10] = tested on: HDF (human dermal fibroblasts); test: Acute cytotoxicity, resazurin assay; assay type: cell-based; conditions: 72 h
Text: as §5, §6

[11] = tested on: S. Enteritidis ATCC 13076; test: MIC for biofilm metabolic activity (MTT reduction assay); assay type: cell-based, Salmonella enterica Enteritidis; conditions: for MICBM80: ≥80% inhibition, 24 h
Procedure: as §1
The determination of MICs was performed according to Chlumsky et al.. […] To evaluate planktonic cells growth (MICPC80) and further growth of biofilm cells (MICBC80), the optical density of the content of the microtiter plates was measured spectrophotometrically at 625 nm before and after 24 h (for biofilm formation) of cultivation or before and after additional 20 h incubation with the tested compound (for preformed biofilm). […] To evaluate the inhibition of biofilm formation (MICBF80) and reduction in preformed biofilms (MICBR80), biomass was quantified using crystal violet staining, and its metabolic activity (MICBM80 and MICMPB80) was estimated by using the MTT (thiazyl tetrazolium bromide, Sigma-Aldrich, USA) reduction assay, both measured spectrophotometrically at 595 nm.
as §3, with “UA). […]” for “UA).”

[12] = tested on: cell lines HRTEC, HaCat, HDF, HEK 293, HCAEC; test: Acute cytotoxicity, resazurin assay, summary over cell lines; assay type: cell-based, human; conditions: 72 h
Text: as §5
The cytotoxicity results are expressed as the average IC50 ± standard error of the mean (SEM). […]

[13] = tested on: S. aureus 816; test: MIC for biofilm metabolic activity (MTT reduction assay); assay type: cell-based, Staphylococcus aureus; conditions: ≥80% inhibition, 24 h
Procedure: as §1
as §2, with “Furthermore, the sterile medium was included in the plate as a marker of potential microbial contamination.” left out, “The difference of A625nm was considered as a measure of the ability of cells to grow in the presence of the tested substances.” left out
as §3, §4

[14] = tested on: S. aureus 1241; test: as above; assay type: cell-based, Staphylococcus aureus; conditions: ≥80% inhibition, 24 h
Procedure: as §1
as §2, with “Furthermore, the sterile medium was included in the plate as a marker of potential microbial contamination.” left out, “The difference of A625nm was considered as a measure of the ability of cells to grow in the presence of the tested substances.” left out
as §3, §4

[15] = tested on: L. monocytogenes 164; test: as above; assay type: cell-based, Listeria monocytogenes; conditions: ≥80% inhibition, 24 h
Procedure: as §1
as §2, with “Furthermore, the sterile medium was included in the plate as a marker of potential microbial contamination.” left out, “The difference of A625nm was considered as a measure of the ability of cells to grow in the presence of the tested substances.” left out
as §3, §4

[16] = tested on: L. monocytogenes 149; test: as above; assay type: cell-based, Listeria monocytogenes; conditions: ≥80% inhibition, 24 h
Procedure: as §1
as §2, with “Furthermore, the sterile medium was included in the plate as a marker of potential microbial contamination.” left out, “The difference of A625nm was considered as a measure of the ability of cells to grow in the presence of the tested substances.” left out
as §3, §4

Question: What does the source list for `CC(=O)N[C@@H](CS)C(=O)O` [NAC, N-Acetyl-L-cysteine]?
Answer: MICPC80 [1]: 6250 µg/mL; MICPC80 [2]: 6250 µg/mL; MICBF80 [3]: 6250 µg/mL; MICBM80 [4]: 6250 µg/mL; MICBM80 [5]: 6250 µg/mL; IC50 ([6]; Homo sapiens, HaCaT): 4020 ± 470 µg/mL (≈ 24.6 mM); IC50 ([7]; Homo sapiens, Epithelial cell): 1570 ± 70 µg/mL (≈ 9.62 mM); IC50 ([8]; Homo sapiens, HEK293, 72 h): 1940 ± 250 µg/mL (≈ 11.9 mM); IC50 ([9]; Homo sapiens, Endothelial cell): 1830 ± 90 µg/mL (≈ 11.2 mM); IC50 ([10]; Homo sapiens, Fibroblast): 460 ± 20 µg/mL (≈ 2.82 mM); MICBM80 [11]: 12,500 µg/mL; IC50 ([12]; Homo sapiens, read-out: IC50, range over cell lines): 460 to 4020 µg/mL (≈ 2.82 to 24.6 mM); MICBM80 [13]: 3130 µg/mL; MICBM80 [14]: 6250 µg/mL; MICBM80 [15]: 6250 µg/mL; MICBM80 [16]: 12,500 µg/mL

Question: With `CC(=O)c1c(O)c(C)c(O)c2c1OC1=CC(=O)C(C(C)=O)C(=O)C12C` (single isomer, unassigned; (+)) [UA, (+)-usnic acid] as the compound, how does the “maximal achieved inhibition (MICPC80 not reached)” value ([1]; within tested concentrations) read?
Answer: 25%

Question: And the MICPC80 [1]?
Answer: > 31.3 µg/mL

Question: What about the “maximal achieved inhibition (MICPC80 not reached)” value ([2]; within tested concentrations) of the same compound?
Answer: 31%

Question: What about the MICPC80 [2] of the same compound?
Answer: > 31.3 µg/mL

Question: What about the “maximal achieved inhibition (MICBF80 not reached)” value ([3]; within tested concentrations) of the same compound?
Answer: 47%

Question: What about the MICBF80 [3] of the same compound?
Answer: > 31.3 µg/mL

Question: And the “maximal achieved inhibition (MICBM80 not reached)” value ([4]; within tested concentrations)?
Answer: 27%

Question: And the MICBM80 [4]?
Answer: > 31.3 µg/mL

Question: And the “maximal achieved inhibition (MICBM80 not reached)” value ([5]; within tested concentrations)?
Answer: 16%

Question: What about the MICBM80 [5] of the same compound?
Answer: > 31.3 µg/mL

Question: What about the “IC50 (µg/mL)” value ([6]; HaCat, cytotoxicity, resazurin, average of 3 repetitions with SEM) of the same compound?
Answer: 0.59 ± 0.14 ^h µg/mL

Question: What about the “IC50 (µg/mL)” value ([7]; HRTEC, cytotoxicity, resazurin, average of 3 repetitions with SEM) of the same compound?
Answer: 3.06 ± 0.17 ^g µg/mL

Question: And the “IC50 (µg/mL)” value ([8]; HEK 293, cytotoxicity, 72 h, resazurin, average of 3 repetitions with SEM)?
Answer: 2.75 ± 0.22 ^g µg/mL

Question: And the “IC50 (µg/mL)” value ([9]; HCAEC, cytotoxicity, resazurin, average of 3 repetitions with SEM)?
Answer: 0.03 ± 0.01 ^i µg/mL

Question: And the “IC50 (µg/mL)” value ([10]; HDF, cytotoxicity, resazurin, average of 3 repetitions with SEM)?
Answer: 4.35 ± 0.41 ^f µg/mL

Question: What about the “maximal achieved inhibition (MICBM80 not reached)” value ([11]; within tested concentrations) of the same compound?
Answer: 45%

Question: What about the MICBM80 [11] of the same compound?
Answer: > 31.3 µg/mL

Question: And the “IC50, range over cell lines” value [12]?
Answer: 0.03 to 4.35 µg/mL

Question: What about the MICBM80 [13] of the same compound?
Answer: 0.24 µg/mL

Question: And the MICBM80 [14]?
Answer: 0.49 µg/mL

Question: What about the MICBM80 [15] of the same compound?
Answer: 1.96 µg/mL

Question: What about the MICBM80 [16] of the same compound?
Answer: 1.96 µg/mL
